According to patent publication US9034311B2, “Pyridin-2(1 H)-one derivatives as JAK inhibitors” (ALMIRALL, S.A., priority 2011, dated 2015):

Assays:
Type in all cases: biochemical
[1] = molecular target: T1, human JAK3 (aa 795-1124) catalytic domain (Homo sapiens, UniProt P52333); assay: In vitro JAK kinase assay (TR-FRET), JAK3; conditions: ATP 0.6 μM, peptide 140 nM, 30 minutes at room temperature
T1 construct: JAK3 (aa 795-1124); purchased Carna Biosciences; host or cells: baculovirus expression system (insect cells)
T1 sequence (P52333 795-1124): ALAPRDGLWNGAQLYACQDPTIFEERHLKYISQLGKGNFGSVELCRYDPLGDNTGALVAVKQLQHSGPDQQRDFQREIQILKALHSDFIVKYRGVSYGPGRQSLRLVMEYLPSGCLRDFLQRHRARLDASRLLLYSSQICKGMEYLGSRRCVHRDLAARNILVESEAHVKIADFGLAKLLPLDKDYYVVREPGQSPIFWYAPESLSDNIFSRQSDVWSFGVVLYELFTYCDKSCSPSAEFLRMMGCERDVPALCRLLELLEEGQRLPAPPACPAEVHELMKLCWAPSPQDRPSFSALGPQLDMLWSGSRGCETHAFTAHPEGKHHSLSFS
Experimental: (§1) Compounds were screened for their ability to inhibit JAK1, JAK2 and JAK3 using the assays as indicated below.
(§2) The catalytic domains of human JAK1 (aa 850-1154), JAK2 (aa 826-1132), JAK3 (aa 795-1124) and Tyk2 (aa 871-1187) were expressed as N-terminal GST-fusion proteins using a baculovirus expression system and were purchased from Carna Biosciences. The enzymatic activity was assayed using as substrate a biotinylated peptide, poly (GT)-Biotin (CisBio). The peptide concentration in the reactions was 60 nM for JAK1, 20 nM for JAK2, 140 nM for JAK3 and 50 nM for Tyk2. The degree of phosphorylation was detected by TR-FRET (time-resolved fluorescence energy transfer).
(§3) IC50s of compounds were measured for each kinase in a reaction mixture containing the enzyme, ATP and the peptide in 8 mM MOPS (pH 7.0), 10 mM MgCl2, 0.05% β-mercaptoethanol, 0.45 mg/ml BSA. The ATP concentration in the reactions was 3 μM for JAK1, 0.2 μM for JAK2, 0.6 μM for JAK3 and 1.8 μM for Tyk2. The enzymatic reactions took place for 30 minutes at room temperature. Then, the reactions were stopped with 20 μL of quench detection buffer (50 mM HEPES, 0.5 M KF, EDTA 0.25 M, 0.1% (w/v) BSA, pH 7.5) containing 0.115 μg/mL of anti-phosphoTyr (PT66)-Cryptate (CisBio) and a variable concentration of SA-XL665 (CisBio) to keep the SA-B ratio constant. Incubate for 3 h and read on Victor 2V spectrofluorometer (Perkin Elmer) set to read fluorescence resonance energy transfer.

[2] = molecular target: T2, human JAK2 (aa 826-1132) catalytic domain (Homo sapiens, UniProt O60674); assay: In vitro JAK kinase assay (TR-FRET), JAK2; conditions: ATP 0.2 μM, peptide 20 nM, 30 minutes at room temperature
T2 construct: JAK2 (aa 826-1132); purchased Carna Biosciences; host or cells: baculovirus expression system (insect cells)
T2 sequence (O60674 826-1132): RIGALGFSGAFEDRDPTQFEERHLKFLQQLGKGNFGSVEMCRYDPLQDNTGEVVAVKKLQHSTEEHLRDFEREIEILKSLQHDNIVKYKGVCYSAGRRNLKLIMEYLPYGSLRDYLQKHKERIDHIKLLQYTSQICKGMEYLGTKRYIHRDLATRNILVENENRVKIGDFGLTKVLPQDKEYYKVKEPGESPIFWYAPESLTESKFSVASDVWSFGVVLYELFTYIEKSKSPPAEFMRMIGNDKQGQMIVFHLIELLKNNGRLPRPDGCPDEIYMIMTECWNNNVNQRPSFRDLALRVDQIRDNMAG
Experimental: as §1, §2, §3

[3] = molecular target: T3, human JAK1 (aa 850-1154) catalytic domain (Homo sapiens, UniProt P23458); assay: In vitro JAK kinase assay (TR-FRET), JAK1; conditions: ATP 3 μM, peptide 60 nM, 30 minutes at room temperature
T3 construct: human JAK1 (aa 850-1154); purchased Carna Biosciences; host or cells: baculovirus expression system (insect cells)
T3 sequence (P23458 850-1154): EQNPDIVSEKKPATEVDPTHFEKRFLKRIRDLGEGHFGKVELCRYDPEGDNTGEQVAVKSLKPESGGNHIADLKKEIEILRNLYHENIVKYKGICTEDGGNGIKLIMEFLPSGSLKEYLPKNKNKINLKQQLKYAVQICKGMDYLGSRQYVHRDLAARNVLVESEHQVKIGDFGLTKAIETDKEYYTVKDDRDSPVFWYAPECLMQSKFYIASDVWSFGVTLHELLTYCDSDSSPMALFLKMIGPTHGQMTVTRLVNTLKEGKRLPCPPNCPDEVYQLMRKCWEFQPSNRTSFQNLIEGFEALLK
Experimental: as §1, §2, §3

IC50 [1] | IC50 [2] | IC50 [3] | Compound
< 100 nM | < 100 nM | < 100 nM | Cc1c(Nc2ccc[nH]c2=O)nc(N[C@@H]2CCCN(C(=O)CC#N)C2)nc1N1CCOCC1 [Example 22, 3-[(3R)-3-({5-methyl-4-morpholin-4-yl-6-[(2-oxo-1,2-dihydropyridin-3-yl)amino]pyrimidin-2-yl}amino)piperidin-1-yl]-3-oxopropanenitrile]
100 to 1000 nM | < 100 nM | > 1000 nM | O=c1[nH]cccc1Nc1nccc(N[C@H]2CC[C@H](CS(=O)(=O)N3CCCC(O)C3)CC2)n1 (relative stereo) [Example 14, 3-({4-[(trans-4-{[(3-hydroxypiperidin-1-yl)sulfonyl]methyl}cyclohexyl)amino]pyrimidin-2-yl}amino)pyridin-2(1H)-one]
< 100 nM | < 100 nM | < 100 nM | N#CCC(=O)N1CCC[C@@H](Nc2nc(Nc3ccc[nH]c3=O)ncc2F)C1 [Example 17, (R)-3-(3-(5-Fluoro-2-(2-oxo-1,2-dihydropyridin-3-ylamino)pyrimidin-4-ylamino)piperidin-1-yl)-3-oxopropanenitrile]
< 100 nM | < 100 nM | < 100 nM | Cc1cnc(Nc2ccc[nH]c2=O)nc1N[C@H]1CC[C@H](CC#N)CC1 [Example 13, 2-((1r,4r)-4-(5-Methyl-2-(2-oxo-1,2-dihydropyridin-3-ylamino)pyrimidin-4-ylamino)cyclohexyl)acetonitrile]
< 100 nM | < 100 nM | < 100 nM | N#CCC(=O)N1CCC[C@@H](Nc2nc(Nc3ccc[nH]c3=O)nc(N3CCOCC3)c2F)C1 [Example 20, 3-[(3R)-3-({5-fluoro-6-morpholin-4-yl-2-[(2-oxo-1,2-dihydropyridin-3-yl)amino]pyrimidin-4-yl}amino)piperidin-1-yl]-3-oxopropanenitrile]
< 100 nM | < 100 nM | 100 to 1000 nM | O=c1[nH]cccc1Nc1ncc(F)c(N[C@@H]2CCCN(c3nnc[nH]3)C2)n1 [Example 18, (R)-3-(4-(1-(4H-1,2,4-Triazol-3-yl)piperidin-3-ylamino)-5-fluoropyrimidin-2-ylamino) pyridin-2(1H)-one]

Continued, compound first:

Compound | IC50 [1] | IC50 [2] | IC50 [3]
C[C@H](Nc1nc(Nc2ccc[nH]c2=O)ncc1C(N)=O)c1ccc(F)cn1 [Example 6, (S)-4-(1-(5-fluoropyridin-2-yl)ethylamino)-2-(2-oxo-1,2-dihydropyridin-3-ylamino) pyrimidine-5-carboxamide] | < 100 nM | < 100 nM | 100 to 1000 nM
COc1cnc(Nc2ccc[nH]c2=O)nc1N[C@@H](C)c1ccc(F)cn1 [Example 4, 3-[(4-{[(1S)-1-(5-fluoropyridin-2-yl)ethyl]amino}-5-methoxypyrimidin-2-yl)amino]pyridin-2(1H)-one] | < 100 nM | < 100 nM | < 100 nM
C[C@H](Nc1nc(Nc2ccc[nH]c2=O)ncc1O)c1ccc(F)cn1 [Example 5, 3-[(4-{[(1S)-1-(5-fluoropyridin-2-yl)ethyl]amino}-5-hydroxypyrimidin-2-yl)amino]pyridin-2(1H)-one] | < 100 nM | < 100 nM | < 100 nM
C[C@H](Nc1cncc(Nc2ccc[nH]c2=O)n1)c1ccc(F)cn1 [Example 11, 3-[(6-{[(1S)-1-(5-Fluoropyridin-2-yl)ethyl]amino}pyrazin-2-yl)amino]pyridin-2(1H)-one] | < 100 nM | < 100 nM | < 100 nM
Cc1cnc(Nc2cc(Cl)c[nH]c2=O)nc1N[C@@H](C)c1ccc(F)cn1 [Example 7, (S)-5-chloro-3-(4-(1-(5-fluoropyridin-2-yl)ethylamino)-5-methylpyrimidin-2-ylamino)pyridin-2(1H)-one] | < 100 nM | < 100 nM | < 100 nM
C[C@H](Nc1cccc(Nc2ccc[nH]c2=O)n1)c1ccc(F)cn1 [Example 12] | < 100 nM | < 100 nM | 100 to 1000 nM
